Tests used:
RSV strain A2 = test: RSV HEp-2 EC50, infectious cytopathic cell protection assay; type: cell-based; settings: human respiratory syncytial virus, 96 h; RSV A2 in HEp-2 cells, 4 days, Cell TiterGlo
Protocol: Antiviral activity against RSV is determined using an infectious cytopathic cell protection assay in HEp-2 cells. In this assay, compounds inhibiting viral infection and/or replication produce a cytoprotective effect against the virus-induced cell killing that can be quantified using a cell viability reagent. The techniques used here are novel adaptations of methods described in published literature (Chapman et al., Antimicrob Agents Chemother. 2007, 51(9):3346-53.).
HEp-2 cells are obtained from ATCC (Manassas, VI) and maintained in MEM media supplemented with 10% fetal bovine serum and penicillin/streptomycin. Cells are passaged twice a week and kept at subconfluent stage. Commercial stock of RSV strain A2 (Advanced Biotechnologies, Columbia, MD) is titered before compound testing to determine the appropriate dilution of the virus stock that generates desirable cytopathic effect in HEp-2 cells.
For antiviral tests, HEp-2 cells are grown in large cell culture flasks to near confluency but not fully so. The compounds to be tested are prediluted in DMSO in 384-well compound dilution plates, either in an 8 or 40 sample per plate standardized dose response format. 3-fold serial dilution increments of each test compound are prepared in the plates and test samples are transferred via acoustic transfer apparatus (Echo, Labcyte) at 100 nL per well into cell culture assay 384-well plates. Each compound dilution is transferred in single or quadruplicate samples into dry assay plates, which are stored until assay is ready to go. The positive and negative controls are laid out in opposite on ends of the plate in vertical blocks (1 column).
Subsequently, an infectious mixture is prepared using an appropriate dilution of virus stock previously determined by titration with cells at a density of 50,000/mL and 20 μL/well is added to test plates w/compounds via automation (uFlow, Biotek). Each plate includes negative and positive controls (16 replicates each) to create 0% and 100% virus inhibition standards, respectively. Following the infection with RSV, testing plates are incubated for 4 days in a 37° C. cell culture incubator. After the incubation, a cell viability reagent, Cell TiterGlo (Promega, Madison, WI) is added to the assay plates, which are incubated briefly, and a luminescent readout is measured (Envision, Perkin Elmer) in all the assay plates. The RSV-induced cytopathic effect, percentage inhibition, is determined from the levels of remaining cell viability. […] Various potent anti-RSV tool compounds are used as positive controls for antiviral activity.

RSV A2 = test: RSV NHBE EC50, RSV A2 antiviral assay; type: cell-based; settings: human respiratory syncytial virus, 96 h; RSV A2 in NHBE cells, 4 days
Protocol: Normal human bronchial epithelial (NHBE) cells were purchased from Lonza (Walkersville, MD, Cat #CC-2540) and cultured in Bronchial Epithelial Growth Media (BEGM) (Lonza, Walkersville, MD, Cat #CC-3170). The cells were passaged 1-2 times per week to maintain <80% confluency. The NHBE cells were discarded after 6 passages in culture.
To conduct the RSV A2 antiviral assay, NHBE cells were plated in 96-well plates at a density of 7,500 cells per well in BEGM and allowed to attach overnight at 37° C. Following attachment, 100 μL of cell culture media was removed and 3-fold serially diluted compound was added using a Hewlett-Packard D300 Digital Dispenser. The final concentration of DMSO was normalized to 0.05%. Following compound addition, the NHBE cells were infected by the addition of 100 μL of RSV A2 at a titer of 1×10^4.5 tissue culture infectious doses/mL in BEGM and then incubated at 37° C. for 4 days. The NHBE cells were then allowed to equilibrate to 25° C. and cell viability was determined by removing 100 μL of culture medium and adding 100 μL of Cell-Titer Glo viability reagent. The mixtures were incubated for 10 minutes at 25° C., and the luminescence signal was quantified on an Envision luminescence plate reader.

HRV16 = HRV16 HeLa EC50; type: cell-based, human rhinovirus; settings: Human rhinovirus sp., HRV16; H1-HeLa cells, 96 h, 33° C.
Protocol: H1-HeLa cells, cultured in complete DMEM medium containing 10% heat-inactivated FBS and 1% Penicillin/Streptomycin, were seeded in 96 well plates at 3000 cells/well one day prior to compound dosing and infection. The antiviral activity of each compound was measured in triplicate. Compounds were added directly to the cell cultures in serial 3-fold dilutions using the HP300 digital dispenser (Hewlett Packard, Palo Alto, CA) immediately prior to infection. The plates were transferred to BSL-2 containment and the appropriate dilution of virus stock, previously determined by titration and prepared in cell culture media, was added to test plates containing cells and serially diluted compounds. Each plate included 6 wells of infected untreated cells and 6 wells of uninfected cells that served as 0% and 100% virus inhibition control, respectively. Following the infection, test plates were incubated for 96 h in a tissue culture incubator set to 33° C./5% CO2. Following incubation, the H1-HeLa cells were removed from incubation and allowed to equilibrate to 25° C. Cell viability was determined by removing 100 μL of culture medium and adding 100 μL of Cell-Titer Glo viability reagent. The mixtures were incubated on a shaker for 10 minutes at 25° C., and the luminescence signal was quantified on an Envision luminescence plate reader.

[1] = Stability assay in human hepatic S9 fractions; type: in vitro ADME; settings: 37° C., NADPH and UDPGA, read-out: Hum HepS9 t1/2
Protocol: (§1) For S9 stability, the compounds were incubated at 2 μM in cynomolgus monkey or human hepatic S9 fractions for up to 90 min at 37° C. in the presence of NADPH and UDPGA (Phase I and Phase II cofactor, Sigma-Aldrich). At desired time points following compound addition, samples were quenched with 9 volumes of an aqueous solution containing internal standard, 50% acetonitrile and 25% methanol. Sample plates were centrifuged at 3000 g for 30 min, and 10 μL of the resulting solution was analyzed by LC-MS/MS. Data (analyte to internal standard peak area ratio) were plotted on a semi log scale and fitted using an exponential fit. The half-life (T1/2) was determined assuming first order kinetics.

[2] = Stability assay in cynomolgus monkey hepatic S9 fractions; type: in vitro ADME; settings: 37° C., NADPH and UDPGA, read-out: Cyno HepS9 t1/2
Protocol: as §1

in vitro = in vitro ADME; settings: plasma, 37° C., up to 4 h
Protocol: For plasma stability, the compounds were incubated at 2 μM in cynomolgus monkey or human plasma for up to 4 h at 37° C. At desired time points, an aliquot from the incubation was quenched by addition of 9 volumes of 100% acetonitrile supplemented with internal standard. Following the last collection, samples were centrifuged at 3000 g for 30 min and supernatants were transferred to a new plate containing an equal volume of water for analysis by liquid chromatography coupled to triple quadrupole mass spectrometry (LC-MS/MS). Data (analyte to internal standard peak area ratio) were plotted on a semi log scale and fitted using an exponential fit. The half-life (T1/2) was determined assuming first order kinetics.

HEp-2 cytotoxicity assay = type: cell-based; settings: human, HEp-2 cells (uninfected), 4-5 days
Protocol: (§2) Cytotoxicity of the compound of Formula I and compounds 1, 2, and 6 was determined in uninfected cells using the cell viability reagent in a similar fashion as described before for other cell types (Cihlar et al., Antimicrob Agents Chemother. 2008, 52(2):655-65.). HEp-2 (1.5×10^3 cells/well) and MT-4 (2×10^3 cells/well) cells were plated in 384-well plates and incubated with the appropriate medium containing 3-fold serially diluted compound ranging from 15 nM to 100,000 nM. Cells were cultured for 4-5 days at 37° C. Following the incubation, the cells were allowed to equilibrate to 25° C., and cell viability was determined by adding Cell-Titer Glo viability reagent. The mixture was incubated for 10 min, and the luminescence signal was quantified using an Envision plate reader. Untreated cell and cells treated at 2 μM puromycin (Sigma, St. Louis, MO) serve as 100% and 0% cell viability control, respectively.

MT-4 cytotoxicity assay = type: cell-based; settings: human, MT-4 cells (uninfected), 4-5 days, read-out: CC50 MT4
Protocol: as §2

[3] = human, read-out: Hum Plasma t1/2

| SMILES | EC50 (RSV strain A2) [nM] | EC50 (RSV A2) [nM] | EC50 (HRV16) [nM] | half-life at 2 μM [1] [min] | half-life at 2 μM [2] [min] | half-life at 2 μM (in vitro; cynomolgus monkey, read-out: Cyno Plasma t1/2) [min] | half-life at 2 μM (in vitro; [3]) [min] | CC50 (HEp-2 cytotoxicity assay) [µM] | CC50 (MT-4 cytotoxicity assay) [µM] |
| --- | --- | --- | --- | --- | --- | --- | --- | --- | --- |
| CCC(CC)COC(=O)[C@H](C)N[P@@](=O)(OC[C@@]1(C#N)O[C@@H](c2ccc3c(N)ncnn23)[C@H](O)[C@@H]1O)Oc1ccccc1 (single isomer, unassigned) [Compound 7] | 124 | 91 | 183 | 6 | 2 | 178 | 233 |  |  |
| CCOC(=O)[C@H](C)N[P@](=O)(OC[C@@]1(C#N)O[C@@H](c2ccc3c(N)ncnn23)[C@H](O)[C@@H]1O)Oc1ccccc1 [Compound 8, ethyl ((S)-(((2R,3S,4R,5S)-5-(4-aminopyrrolo[2,1-f][1,2,4]triazin-7-yl)-2-cyano-3,4-dihydroxytetrahydrofuran-2-yl)methoxy)(phenoxy)phosphoryl)-L-alaninate] | 91 | 932 | 678 | 2 |  |  | 361 | > 100 | 28.3 |

— US20250034186A1, “ANTIVIRAL COMPOUNDS” (priority 2020, published 2025)
